In brackets after ≈: the same amount, converted by molar mass.
Columns and labels:
S. aureus [1] = experiment: Methicillin resistance, PBSCT patients; type: cell-based, Staphylococcus aureus
CoNS = experiment: Methicillin resistance, PBSCT patients; type: cell-based, Coagulase-negative Staphylococcus
Staphylococcus aureus [2] = experiment: EARSS Ireland, invasive isolates; type: cell-based; settings: Jan'99–Jun'04, 4786 isolates
S. aureus [3] = experiment: Italian survey of severe infections 2003, MIC; type: cell-based, Staphylococcus aureus
S. epidermidis = experiment: Italian survey of severe infections 2003, MIC; type: cell-based, Staphylococcus epidermidis
Staphylococcus aureus [4] = experiment: Broth microdilution and E-test, diabetic foot ulcers; type: cell-based; settings: 81 isolates
[5] = system: Staphylococcus epidermidis; experiment: as above; type: cell-based; settings: 53 isolates
Shigella spp. = experiment: Disk diffusion, stool isolates Tehran; type: cell-based; settings: 96 isolates
S. pneumoniae [6] = type: cell-based, Streptococcus pneumoniae
H. influenzae = type: cell-based, Haemophilus influenzae
Acinetobacter = experiment: Disk diffusion; type: cell-based; settings: 37 isolates selected as resistant to beta-lactams
F. necrophorum = experiment: E-test, 13 clinical isolates; type: cell-based, Fusobacterium necrophorum; settings: for MIC50 / MIC90: Fusobacterium necrophorum
Pseudomonas spp. = experiment: MIC; type: cell-based
S. marcescens = experiment: Italian survey of severe infections 2003, MIC; type: cell-based, Serratia marcescens
M. morganii = experiment: Italian survey of severe infections 2003, MIC; type: cell-based, Morganella morganii
P. stuartii [7] = experiment: Italian survey of severe infections 2003, MIC; type: cell-based, Providencia stuartii
S. pneumoniae [8] = experiment: MIC of invasive strains, Saint George Hospital 2001–2004; type: cell-based, Streptococcus pneumoniae
Escherichia coli (ECO) = experiment: Broth microdilution; type: cell-based; settings: 2001
nontyphoidal Salmonella = experiment: Agar dilution, isolates from chickens 1998–2004; type: cell-based, Salmonella spp.; settings: Salmonella
E. coli [9] = experiment: E-test susceptibility; type: cell-based, Escherichia coli
K. pneumoniae [10] = experiment: E-test susceptibility; type: cell-based, Klebsiella pneumoniae
[11] = system: P. aeruginosa strains from CF sputa; experiment: O-serotyping; type: cell-based, Pseudomonas aeruginosa; settings: exposure to 1/2–1/16 MIC (ceftazidime) or 1/2–1/8 MIC (ciprofloxacin)
Escherichia coli = experiment: Vitek 2 susceptibility, urine isolates of children; type: cell-based
[12] = system: S. typhimurium (strain SL1344); experiment: Cell envelope proteome; type: cell-based, Salmonella typhimurium; settings: 31.2 ng/ml; control 296 ± 77; mean + 1 SD
K. pneumoniae [13] = experiment: MIC; type: cell-based, Klebsiella pneumoniae
S. pneumoniae (SPN) = experiment: NCCLS broth microdilution, fluoroquinolones 1999–2004; type: cell-based, Streptococcus pneumoniae; settings: Streptococcus pneumoniae, read-out: MIC90 during the six years, 1999–2004
[14] = system: Pseudomonas aeruginosa (PA); experiment: MIC; type: cell-based
qnrA = qnrA transcription in E. coli transconjugants after quinolone induction; type: cell-based, Escherichia coli; settings: 0.4 × MIC
Enterobacteriaceae = experiment: SMART 2003 Europe, microdilution; type: cell-based; settings: 1948 isolates
E. coli [15] = experiment: SMART 2003 Europe, microdilution; type: cell-based, Escherichia coli; settings: 1106 isolates
[16] = system: S. enterica serotype Typhimurium; experiment: Susceptibility testing of CipR strains from children and exotic pets; type: cell-based; settings: Salmonella enterica
S. pneumoniae [17] = experiment: Broth microdilution; type: cell-based, Streptococcus pneumoniae; settings: 275 isolates
S. aureus [18] = experiment: NCCLS broth microdilution, SSTI isolates; type: cell-based; settings: Staphylococcus aureus
P. stuartii [19] = experiment: E-test MIC and mutant prevention concentration, qnr transconjugand and mutants; settings: Providencia stuartii
[20] = system: viridans group streptococci (VGS); experiment: MIC; type: cell-based
[21] = system: Streptococcus pneumoniae (SPN); experiment: MIC; type: cell-based; settings: 8378 isolates
[22] = system: Haemophilus influenzae (HI); experiment: MIC; type: cell-based; settings: 7489 isolates
[23] = system: Moraxella catarrhalis (MC); experiment: MIC; type: cell-based; settings: 2497 isolates
[24] = system: Streptococcus pyogenes (SPY); experiment: MIC; type: cell-based; settings: 2522 isolates
S. pyogenes = experiment: PROTEKT Italy, NCCLS microdilution; type: cell-based, Streptococcus pyogenes; settings: year 1: 2002
S. pneumoniae [25] = experiment: PROTEKT Italy, NCCLS microdilution; type: cell-based, Streptococcus pneumoniae
[26] = system: Pseudomonas aeruginosa (PSA); experiment: Vitek 2 susceptibility, urine isolates of children; type: cell-based; settings: both departments
P. aeruginosa = type: cell-based, Pseudomonas aeruginosa
N. farcinica strain = experiment: E-test on Mueller-Hinton agar; type: cell-based; settings: Nocardia farcinica
Nocardia spp. [27] = experiment: E-test on Mueller Hinton agar, 81 clinical isolates; type: cell-based; settings: Nocardia
Nocardia spp. [28] = experiment: Time-kill at peak-serum concentrations, seven strains; type: cell-based; settings: of seven strains; 24, 72 h
[29] = system: inducible Enterobacteriaceae; experiment: SMART 2003, intraabdominal isolates; type: cell-based
Klebsiella = experiment: SMART 2003 Europe, microdilution; type: cell-based, Klebsiella spp.; settings: 341 isolates
P.aeruginosa = experiment: Italian survey of severe infections 2003, MIC; type: cell-based, Pseudomonas aeruginosa
A. baumannii = experiment: Italian survey of severe infections 2003, MIC; type: cell-based, Acinetobacter baumannii
B.cepacia = experiment: Italian survey of severe infections 2003, MIC; type: cell-based, Burkholderia cepacia
K. oxytoca = experiment: E-test susceptibility; type: cell-based, Klebsiella oxytoca
Enterobacter spp = experiment: E-test susceptibility; type: cell-based
Gram-negative rods = experiment: Microscan MIC, blood culture isolates; type: cell-based
PSA = settings: background statement, no reference given; cited from earlier work
[30] = ICU, SRGA breakpoints, tigecycline tentative S ≤2 μg/ml

Compound: COc1cccc(OC)c1C(=O)N[C@@H]1C(=O)N2[C@@H]1SC(C)(C)[C@@H]2C(=O)O [methicillin]
- resistance (S. aureus [1]): 47.4%
- resistance (CoNS): 86.5%
- resistant isolates (Staphylococcus aureus [2]): 41.4%
- resistance (S. aureus [3]): 37.1%
- resistance (S. epidermidis): 86.7%
- resistant isolates (Staphylococcus aureus [4]): 27.2%
- resistant isolates [5]: 35.8%

Compound: CO/N=C(\C(=O)N[C@@H]1C(=O)N2C(C(=O)O)=C(COC(C)=O)CS[C@H]12)c1csc(N)n1 [cefotaxime]
- sensitive (Shigella spp.): 100%
- resistant (S. pneumoniae [6]): 0%
- resistant (H. influenzae): 0%
- resistant isolates (Acinetobacter): 75.7%
- MIC range (F. necrophorum): 0.016 to 256 µg/mL
- MIC50 (F. necrophorum): 0.016 µg/mL (≈ 0.0351 µM)
- MIC90 (F. necrophorum): 0.064 µg/mL (≈ 0.141 µM)
- resistant strains (Pseudomonas spp.): 90%
- resistance (S. marcescens): 13.2%
- resistance (M. morganii): 14,3%
- resistance (P. stuartii [7]): 84.5%
- % S (S. pneumoniae [8]): 95.2%
- %R (S. pneumoniae [8]): 4.8%
- susceptible (Escherichia coli (ECO); NAL-resistant isolates): 89.9%
- susceptible (Escherichia coli (ECO); NAL-susceptible isolates): 99.2%
- MIC50 (nontyphoidal Salmonella; read-out: MIC 50/90): 0.12 to 0.25 µg/mL (≈ 0.263 to 0.549 µM)
- Susceptible isolates (E. coli [9]; [30]): 98%
- Susceptible isolates (E. coli [9]; non ICU): 99%
- Susceptible isolates (K. pneumoniae [10]; ICU): 98%
- Susceptible isolates (K. pneumoniae [10]; non ICU): 100%

Compound: O=C(O)c1cn(C2CC2)c2cc(N3CCNCC3)c(F)cc2c1=O [ciprofloxacin]
- change of agglutination type of nine monoagglutinable strains [11]: five out of nine strains
- susceptibility rate (Escherichia coli; paediatric surgical unit (PSU)): 96%
- susceptibility rate (Escherichia coli; paediatric units (PU)): 100%
- number of proteins detected in 2D gels [12]: 153 ± 36
- susceptibility category (K. pneumoniae [13]; BSAC): resistant
- sensitive (Shigella spp.): 100%
- intermediate susceptible (H. influenzae): 2.4%
- MIC90 (S. pneumoniae (SPN)): 2 µg/mL (≈ 6.04 µM)
- isolates with MPC ≤ 2 μg/ml [14]: 79%
- MPC range ([14]; 10 billion organisms on agar): 1 to 4 µg/mL
- MIC range ([14]; patients P1 and P2): 0.031 to 1 µg/mL
- increase of qnrA transcription over baseline (qnrA; transconjugant from 1960): 2.6 times
- increase of qnrA transcription over baseline (qnrA; transconjugant from N5): 5.1 times
- increase of qnrA transcription over baseline (qnrA; transconjugant from UAB1): 4.3 times
- per cent susceptible (Enterobacteriaceae): 84%
- per cent susceptible (E. coli [15]): 80%
- MIC [16]: ≥ 16 µg/mL
- Susceptibility (S. pneumoniae [17]): 94.5%
- MIC90 (nontyphoidal Salmonella): ~0.25 µg/mL (≈ 0.754 µM)
- MIC50 (S. aureus [18]): 0.25 µg/mL (≈ 0.754 µM)
- MIC (P. stuartii [19]; ATCC29914, P. stuartii ATCC 29914 RifR): 0.03 µg/mL (≈ 0.0905 µM)
- MIC (P. stuartii [19]; ATCC29914, mutants of ATCC 29914 RifR, SCV, median): 3 µg/mL (≈ 9.05 µM)
- MIC (P. stuartii [19]; TCPs 123 (qnr-positive transconjugand)): 0.5 µg/mL (≈ 1.51 µM)
- MIC (P. stuartii [19]; mutants of TCPs 123, SCV, median): > 32 µg/mL
- MIC (P. stuartii [19]; mutants of TCPs 123, normal colony size, median): 6 µg/mL (≈ 18.1 µM)

Compound: CC[C@H]1OC(=O)[C@H](C)C(=O)[C@H](C)[C@@H](O[C@@H]2O[C@H](C)C[C@H](N(C)C)[C@H]2O)[C@](C)(OC)C[C@@H](C)C(=O)[C@H](C)[C@H]2N(CCCCn3cnc(-c4cccnc4)c3)C(=O)O[C@]12C [telithromycin]
- MIC50 [20]: 0.007 µg/mL (≈ 0.00862 µM)
- MIC90 [20]: 2 µg/mL (≈ 2.46 µM)
- MIC90 [21]: 0.008 ig/ml
- MIC90 [22]: 4 ig/ml
- MIC90 [23]: 0.12 ig/ml
- MIC90 [24]: 0.008 ig/ml
- Susceptibility (S. pyogenes): 92.7%
- susceptible (S. pneumoniae [25]; year 1: 2002): 99.7%
- susceptible (S. pneumoniae [25]; year 2: 2003): 99.1%

Compound: C[C@@H](O)[C@H]1C(=O)N2C(C(=O)O)=C(SCCN=CN)C[C@H]12 [imipenem]
- Susceptible isolates [26]: 74-100%
- MIC (K. pneumoniae [13]; Klebsiella pneumoniae): 1 to 8 µg/mL (≈ 3.34 to 26.7 µM)
- MIC50 [20]: 0.015 µg/mL (≈ 0.0501 µM)
- MIC90 [20]: 0.12 µg/mL (≈ 0.401 µM)
- resistant (H. influenzae): 0%
- resistant (P. aeruginosa): 42%
- MIC (N. farcinica strain): > 32 µg/mL
- MIC50 (Nocardia spp. [27]): 0.5 µg/mL (≈ 1.67 µM)
- MIC90 (Nocardia spp. [27]): 2 µg/mL (≈ 6.68 µM)
- resistant isolates (Acinetobacter): 0.0%
- strains with bactericidal activity (≥3 log10 cfu/ml decrease) (Nocardia spp. [28]): 4 strains
- MIC range (F. necrophorum): 0.004 to 32 µg/mL
- MIC50 (F. necrophorum): 1.5 µg/mL (≈ 5.01 µM)
- MIC90 (F. necrophorum): > 32 µg/mL
- % susceptible ([29]; A/P (N = 200)): 99%
- % susceptible ([29]; EU (N = 354)): 98%
- % susceptible ([29]; LA (N=113)): 98%
- % susceptible ([29]; NA (N = 163)): 98%
- per cent susceptible (Enterobacteriaceae): >99%
- per cent susceptible (E. coli [15]): 100%
- per cent susceptible (Klebsiella): 99%
- resistance (P.aeruginosa): 11.9%
- resistance (A. baumannii): 22.5%
- resistance (B.cepacia): 71.4%
- % S (S. pneumoniae [8]): 100%
- %R (S. pneumoniae [8]): 0%
- Susceptible isolates (E. coli [9]; [30]): 99%
- Susceptible isolates (E. coli [9]; non ICU): 100%
- Susceptible isolates (K. pneumoniae [10]; ICU): 100%
- Susceptible isolates (K. pneumoniae [10]; non ICU): 99%
- Susceptible isolates (K. oxytoca; ICU): 100/100%
- Susceptible isolates (K. oxytoca; non ICU): 100/100%
- Susceptible isolates (Enterobacter spp; ICU): 96%
- Susceptible isolates (Enterobacter spp; non ICU): 98%
- susceptible strains (n/N) (Gram-negative rods): 15/16
- MIC50 (PSA): 1 µg/mL (≈ 3.34 µM)

— PMC7129073 (Clinical Microbiology and Infection, 2015)
